Results as given in PMC12756182, “Co-option of an ancestral peptidase controls developmental patterning in multicellular cyanobacteria” (iScience, 2025).

Legend:
Alr1666 (PatP) = assay: LC-MS/MS identification of Alr1666-generated non-tryptic PatX peptides; assay type: biochemical, Nostoc PCC 7120; conditions: LC-MS/MS of excised 18–25 kDa gel region; three experimental replicates; with vs without Alr1666-V5
From the text: Figure 5 Ex vivo cleavage assay of TrxA-PatXΔSS-MBP by the putative peptidase Alr1666 (A) Schematic of the TrxA-PatXΔSS-MBP fusion protein construct, shown before and after potential cleavage by Alr1666. (B) Immunoblot analysis of cleavage assays. Expression of trxA-patXΔSS-malE was induced with IPTG; expression of alr1666-V5 was induced with arabinose. The blot was probed with anti-TrxA antibodies (top panel) to detect the full-length TrxA-PatXΔSS-MBP fusion and any TrxA-PatX cleavage product, and with anti-V5 antibodies (bottom panel) to confirm Alr1666-V5 production. Lanes: 1, no inducer (negative control); 2, IPTG for 3 h; 3, IPTG for 1 h; 4, co-induction with IPTG and arabinose for 3 h; 5, sequential induction (IPTG for 1 h, then arabinose for 3 h). (C) Liquid chromatography-tandem mass spectrometry analysis of peptides from excised gel bands (see Figure S6A). […] Trx-PatXΔSS-MBP + Alr1666-V5: Experimental assay with Alr1666-V5. ∗0 values: No non-tryptic peptides were detected in control samples. […]
The 18–25 kDa region was excised to identify PatX-cleavage peptides by mass spectrometry (Figure S6A). Because higher molecular-weight bands smear downward during SDS-PAGE, the excised slice also contains proteins from those upper regions, and they will be detected as well. […] They were uniquely detected in Alr1666-expressing samples ([…]). […]

HetR / hetP promoter = assay: EMSA of HetR with the hetP promoter; assay type: biochemical, Nostoc PCC 7120; conditions: HetR 1 μM, hetP promoter 50 nM (6-FAM), peptide 1 μM, pH 8, 4°C, 30 minutes, one representative result
Experimental: Heterocysts are indicated by white arrows. Time denotes hours post combined nitrogen starvation. Scale bars, 30 μm. […] Sector 1: wild-type. Sector 2: malE mutant. […] Red color indicates MBP periplasmic export.
The hetP gene promoter (alr2818) was amplified by PCR using PhetP fw and PhetP rv primers, with the forward primer labeled at the 5′ end with 6-FAM. Purified HetR protein (as previously described),[3] was incubated with the hetP promoter (50 nM) in a buffer containing 10 mM Tris (pH 8), 150 mM KCl, 500 nM EDTA, 0.1% Triton X-100, 12.5% glycerol, 1 mM DTT, and 1 μg DiDC competitor at 4°C in the dark for 30 minutes. Electrophoresis was conducted at 250 V for 60 minutes, and DNA was visualized using the Typhoon FLA 9500.

[1] = test system: Nostoc heterocyst differentiation; conditions: cited from earlier work
HetR [2] = target: T1, HetR (Nostoc sp., UniProt P27709); conditions: cited from earlier work
T1 construct: made in house
T1 sequence (P27709 1-299): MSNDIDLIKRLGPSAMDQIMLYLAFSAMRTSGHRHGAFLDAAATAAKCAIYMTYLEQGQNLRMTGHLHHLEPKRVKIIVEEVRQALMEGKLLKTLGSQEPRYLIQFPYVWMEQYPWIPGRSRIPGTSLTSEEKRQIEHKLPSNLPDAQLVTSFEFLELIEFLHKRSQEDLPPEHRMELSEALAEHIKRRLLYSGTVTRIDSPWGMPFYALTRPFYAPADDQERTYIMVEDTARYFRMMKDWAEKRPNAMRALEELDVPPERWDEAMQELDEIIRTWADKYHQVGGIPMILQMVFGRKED
From the text: Heterocyst differentiation involves four stages—induction, pattern formation, commitment, and morphogenesis—regulated by signaling cascades involving the master transcriptional regulator HetR.[10] Nitrogen starvation triggers 2-oxoglutarate (2-OG) accumulation, activating NtcA to upregulate hetR.[11]^,[12] Deletion of hetR prevents differentiation, while its overexpression induces contiguous heterocysts formation even under non-permissive conditions.[10] HetR initiates a negative feedback loop by activating patS expression.[13] The resulting 17-amino-acid product is processed into the signalin ...

[3] = test system: Nostoc PCC 7120 heterocyst differentiation; conditions: cited from earlier work
From the text: While hetR is conserved across heterocyst-forming cyanobacteria, patS and hetN are not,[23] implying the existence of additional inhibitory factors. Recently, PatX, containing the HRGTGR hexapeptide, was identified as coextensive with HetR in filamentous cyanobacteria.[23]

HetR (Nostoc PCC 7120) = target: T2, HetR (Nostoc PCC 7120) (UniProt P27709); assay: EMSA; conditions: EMSA: 10 mM Tris pH 8, 150 mM KCl, 500 nM EDTA, 0.1% Triton X-100, 12.5% glycerol, 1 mM DTT, 1 ug DiDC competitor (so in the source), 50 nM DNA, 4 C, 30 min in the …
T2 sequence: T1 sequence (P27709 1-299)

HetR [4] = target: T3, HetR (Nostoc PCC 7120, UniProt P27709 1-299); assay: ITC; PatX6 (200 μM, syringe) titrated into HetR (22 μM, cell), 25°C, PBS pH 7.4, one-site binding model, MicroCal PEAQ-ITC; conditions: both partners purified
T3 construct: HetR, master transcriptional regulator of heterocyst differentiation, Nostoc/Anabaena PCC 7120; purified protein used in ITC and EMSA; also called master transcriptional regulator HetR; source: purified (as previously described)
T3 sequence (looked up): T1 sequence (P27709 1-299)

In the case of “AFSPSNSQNMISLK [non-tryptic PatX cleavage peptide flanking HRGTGR, detected by mass spectrometry]”, the “detection of non-tryptic cleavage peptide” value (Alr1666 (PatP)) is reported as “exclusively present in peptidase-producing strains”.

In the case of “ERGSGR [PatS6, signaling peptide PatS6 (ERGSGR), positive control in EMSA]”, the “effect on HetR-hetP promoter interaction” value (HetR / hetP promoter) is given as “abolished this interaction”, the “effect of exogenous peptide on differentiation” value [1] is given as “suppress differentiation” and the “binding to HetR and effect on its DNA-binding function” value (HetR [2]) is given as “binds to HetR to inhibit its DNA-binding function”.

In the case of “GPDIIFWAHDR [non-tryptic PatX cleavage peptide flanking HRGTGR, detected by mass spectrometry]”, the “detection of non-tryptic cleavage peptide” value (Alr1666 (PatP)) is reported as “exclusively present in peptidase-producing strains”.

In the case of “PatS: 17-amino-acid product of patS, processed into PatS5 or PatS6 (MKAIMLVNFCDERGSGR; UniProt O52748 1-17, looked up)”, the “effect of overexpression on heterocyst differentiation” value [3] is given as “inhibits heterocyst differentiation”.

In the case of “RGSGR [PatS5, signaling peptide PatS5 (RGSGR)]”, the “effect of exogenous peptide on differentiation” value [1] is listed as “suppress differentiation” and the “binding to HetR and effect on its DNA-binding function” value (HetR [2]) is listed as “binds to HetR to inhibit its DNA-binding function”.

With “TGAGTTATACGCTATATCAATGGGGATTTTGAGCATTTTCTACTAGGTAATGAGGGGTTAGACCCCTCGCCTACTGTGCATTTGAGACTTTAAACCTACTAAGAGAATTTACCACTAAAT (double strand) [hetP promoter PCR fragment]” the binding (HetR (Nostoc PCC 7120)) was “binds”.

B1: PatX-6 peptide (HRGTGR) (peptide)
peptide: HRGTGR
notes: also called PatX6 hexapeptide; PatX-derived hexapeptide; source: synthetic peptide (Genecust)
With B1 the Kd (HetR [4]) was 88 nM.

B2: HetN: another inhibitor that maintains heterocyst patterning, containing the RGSGR pentapeptide (protein, UniProt P37694 1-287, looked up)
Ketoacyl reductase HetN: MTTLTGKTVLLTGASRGLGVYIARALAKEQATVVCVSRSQSGLAQTCNAVKAAGGKAIAIPFDVRNTSQLSALVQQAQDIVGPIDVLINNAGIEINGTFANYSLAEIQSIFNTNLLAAMELTRLLLPSMMERGSGRIVNIASLAGKKGVAFNSVYSASKAGLIMWTDAMRQELVGTGVNISVVCPGYVSQTGMTVDTRVSAPKLAGISTPKSVANAVVKAIKNKTTEVIVNQNPITESLTKLMLAVGQISPTSVDRIYRWFGVVDFNQKRAENRVKDGYVAVESHRS
In the case of B2, the “effect of overexpression on heterocyst differentiation” value [3] is listed as “inhibits heterocyst differentiation”.
